Assay results as given in ChEMBL document CHEMBL5325505, “Discovery of chiral 1,4-diarylazetidin-2-one-based hydroxamic acid derivatives as novel tubulin polymerization inhibitors with histone deacetylase inhibitory activity” (Bioorg Med Chem, 2023).

What was measured:
BE(2)-C [1] = assay: Induction of apoptosis in human BE2C cells assessed as necrotic cells at 100 nM incubated for 48 hrs by annexin V-FITC/PI staining based flow cytometry (reference value: 3.57 %); format: functional
Histone deacetylase 1 = Histone deacetylase 1 (Homo sapiens, UniProt Q13547); assay: Inhibition of HDAC1 (unknown origin)
[2] = target: T1, Protein deacetylase HDAC6 (Homo sapiens, UniProt Q9UBN7); assay: Inhibition of HDAC6 (unknown origin)
T1 sequence (Q9UBN7 whole entry): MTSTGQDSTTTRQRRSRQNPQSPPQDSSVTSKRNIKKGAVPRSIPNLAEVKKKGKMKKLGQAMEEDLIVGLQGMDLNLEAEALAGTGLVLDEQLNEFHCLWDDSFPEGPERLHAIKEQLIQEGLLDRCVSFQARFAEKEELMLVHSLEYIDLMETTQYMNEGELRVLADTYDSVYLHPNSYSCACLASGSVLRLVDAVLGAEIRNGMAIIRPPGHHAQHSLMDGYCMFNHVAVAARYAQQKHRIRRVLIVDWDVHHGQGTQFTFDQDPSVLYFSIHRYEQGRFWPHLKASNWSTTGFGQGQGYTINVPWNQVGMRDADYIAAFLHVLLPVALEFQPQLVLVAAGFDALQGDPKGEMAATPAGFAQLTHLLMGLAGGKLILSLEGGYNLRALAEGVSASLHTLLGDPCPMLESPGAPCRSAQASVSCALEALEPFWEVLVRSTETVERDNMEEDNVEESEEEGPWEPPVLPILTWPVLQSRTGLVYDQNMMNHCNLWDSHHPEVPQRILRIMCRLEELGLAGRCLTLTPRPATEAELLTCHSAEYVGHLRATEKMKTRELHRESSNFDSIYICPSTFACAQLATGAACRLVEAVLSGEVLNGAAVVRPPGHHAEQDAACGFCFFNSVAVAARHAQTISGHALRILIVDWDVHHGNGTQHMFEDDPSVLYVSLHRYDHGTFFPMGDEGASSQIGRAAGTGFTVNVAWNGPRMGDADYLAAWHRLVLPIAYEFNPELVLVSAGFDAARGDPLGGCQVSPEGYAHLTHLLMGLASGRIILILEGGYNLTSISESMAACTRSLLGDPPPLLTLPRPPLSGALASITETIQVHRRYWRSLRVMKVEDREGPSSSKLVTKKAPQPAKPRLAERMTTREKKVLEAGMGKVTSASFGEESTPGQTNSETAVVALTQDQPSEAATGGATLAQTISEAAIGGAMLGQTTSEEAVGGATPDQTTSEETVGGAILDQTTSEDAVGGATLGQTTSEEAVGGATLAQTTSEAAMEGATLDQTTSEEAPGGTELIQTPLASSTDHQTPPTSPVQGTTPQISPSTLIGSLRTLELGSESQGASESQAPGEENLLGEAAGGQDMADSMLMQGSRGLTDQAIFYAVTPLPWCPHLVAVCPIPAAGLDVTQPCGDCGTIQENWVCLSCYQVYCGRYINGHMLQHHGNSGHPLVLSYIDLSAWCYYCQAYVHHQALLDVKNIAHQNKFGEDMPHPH

BE(2)-C [3] = assay: Induction of apoptosis in human BE2C cells assessed as early apoptotic cells at 100 nM incubated for 48 hrs by annexin V-FITC/PI staining based flow cytometry (reference value: 4.28 %); format: functional
BE(2)-C [4] = assay: Induction of apoptosis in human BE2C cells assessed as viable cells at 50 nM incubated for 48 hrs by annexin V-FITC/PI staining based flow cytometry (reference value: 82.16 %); format: functional; conditions: read-out: Activity
BE(2)-C [5] = assay: Induction of cell cycle arrest in human BE2C cells assessed as accumulation at G2/M phase at 100 nM incubated for 24 hrs by RNase/PI staining based flow cytometry (reference value: 31 %); format: functional

Sequence of Histone deacetylase 1 (Q13547 whole entry): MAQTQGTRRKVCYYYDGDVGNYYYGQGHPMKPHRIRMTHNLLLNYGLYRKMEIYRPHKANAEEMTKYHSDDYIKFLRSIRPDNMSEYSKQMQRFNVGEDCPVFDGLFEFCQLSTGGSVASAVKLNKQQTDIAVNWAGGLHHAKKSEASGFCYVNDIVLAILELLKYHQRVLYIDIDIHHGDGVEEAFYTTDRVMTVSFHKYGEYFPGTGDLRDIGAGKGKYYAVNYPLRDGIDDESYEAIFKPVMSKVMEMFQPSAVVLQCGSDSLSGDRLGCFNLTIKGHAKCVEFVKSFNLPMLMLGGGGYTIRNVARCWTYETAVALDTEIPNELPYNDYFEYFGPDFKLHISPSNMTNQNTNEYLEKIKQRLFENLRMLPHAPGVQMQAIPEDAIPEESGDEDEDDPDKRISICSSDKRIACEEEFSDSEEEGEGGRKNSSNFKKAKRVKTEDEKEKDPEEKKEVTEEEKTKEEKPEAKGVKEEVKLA

IC50 (Histone deacetylase 1): 155 nM
IC50 [2]: 1040 nM
Compound: COc1ccc([C@H]2[C@H](COC(=O)c3ccc(C(=O)NO)cc3)C(=O)N2c2cc(OC)c(OC)c(OC)c2)cc1O
Activity (BE(2)-C [1]): 9.54%
Activity (BE(2)-C [3]): 17.27%
viability at 0.05 µM (BE(2)-C [4]): 50.2%
Activity (BE(2)-C [5]): ~77%
